Test results: patent publication US6329363A, “Cephalosporin antibiotics” (Eli Lilly and Company, priority 1998, dated 2001)

Columns and labels:
S.aureus ATCC 29213 = test: MIC, in vitro activity vs. S.aureus ATCC 29213; type: cell-based, Staphylococcus aureus; parameters: unit not given beside the values; settings: Incubated at 37° C. overnight
Procedure: (§1) Table 2 summarizes the minimal inhibitory concentrations (MIC's) at which illustrative formula I compounds and cephalothin inhibit certain microorganisms associated with mastitis, such as Staphylococcus aureus 10092 (Newbould strain).
(§2) ^a Incubated at 37° C. overnight

S.aureus 174 C = test: MIC, in vitro activity vs. S.aureus 174 C; type: cell-based, Staphylococcus aureus; parameters: unit not given beside the values; settings: Incubated at 37° C. overnight
Procedure: as §1, §2

[1] = test system: Staphylococcus aureus 10092 (Newbould strain); test: MIC, in vitro activity vs. S.aureus 10092; type: cell-based; parameters: unit not given beside the values; settings: Incubated at 37° C. overnight
Procedure: as §1, §2

S.aureus F1C = test: MIC, in vitro activity vs. S.aureus F1C; type: cell-based, Staphylococcus aureus; parameters: unit not given beside the values; settings: Incubated at 37° C. overnight
Procedure: as §1, §2

[2] = test system: Streptococcus uberis 150 L; test: MIC, in vitro activity vs. Streptococcus uberis 150 L; type: cell-based; parameters: unit not given beside the values; settings: Incubated at 37° C. overnight
Procedure: as §1, §2

[3] = test system: Streptococcus uberis 166 L; test: MIC, in vitro activity vs. Streptococcus uberis 166 L; type: cell-based; parameters: unit not given beside the values; settings: Incubated at 37° C. overnight
Procedure: as §1, §2

Streptococcus agalactiae = test: MIC, in vitro activity vs. Streptococcus agalactiae; type: cell-based; parameters: unit not given here; settings: Incubated at 37° C. overnight
Procedure: as §1, §2

[4] = test system: Strepcococcus dysgalactiae; test: MIC, in vitro activity vs. Streptococcus dysgalactiae; type: cell-based; parameters: unit not given here; settings: Incubated at 37° C. overnight
Procedure: as §1, §2

[5] = test system: Staphylococcus aureus 10092 (Newbould); test: Efficacy in induced Staphylococcus aureus mastitis model in lactating goats; type: in vivo; settings: 8 halves per compound, 2 consecutive milkings 12 hours apart, approximately 25 mg/5 mL dose in peanut oil, from 36 hours post-challenge
Description: Sixteen lactating goats were selected based on the absence of Staphylococcus aureus in pre-challenge milk cultures. Maintenance ration was provided to the animals throughout the study. The goats were milked twice each day using a portable goat milker.
Milk samples were collected during the morning milking. One day prior to challenge, milk culture samples were collected from each half of the test animals to determine if there was a pre-existing infection. Additionally, a sample was collected from each half for Somatic Cell Count (SCC) determination. A milk culture sample and a sample for SCC were collected from each half 24 hours post-challenge and on Days +4 to +6, +8, +11, +13, and +15.
Udder scoring was performed during each milking wing table:
General health observations and body temperature were recorded once a day following milking during the challenge and treatment periods.
Milk samples were submitted for analysis for SCC using an electronic somatic cell counting system.
Milk culture samples were assayed for bacterial culture by plating 1.0 mL and 0.1 mL of the milk sample directly onto duplicate blood agar plates. Additionally, dilutions 10^-1 of the milk sample were plated. Plates were incubated overnight at 37° C.
Staphylococcus aureus 10092 (Newbould) was used as the challenge strain. The challenge culture was grown in Tryptic Soy Broth (TSB) from a lyovial stock overnight (16 hours) at 37° C. TSB (100 mL) was inoculated with 1 mL of the overnight culture and incubated at 37° C. with shaking for 4 hours. The culture was centrifuged at 9000 rpm for 10 minutes at 10° C.; supernatant was removed and the pellet was resuspended in phosphate buffered saline (PBS). Optimum O.D. reading at 650 nm was approximately 0.035. A 10-fold dilution series was prepared with saline to determine the CFU/mL, plating 10^-5, 10^-6, and 10^-7 dilutions onto duplicate blood agar plates. The 10^-7 dilution (approximately 10 CFU/mL) was used for the challenge material, yielding a challenge of 50 CFU/half with a 5-mL infusion.
Sixteen goats were used for the trial. During a one day pre-challenge period, milk samples were collected and temperatures were taken during the morning milking. Milk/udder evaluations were documented during the morning and afternoon milkings.
Staphylococcus aureus 10092 was infused into both halves in each of the goats. The goats were challenged following the morning milking and milked in the afternoon on the day of challenge. The challenge inoculum volume was 5 mL/half containing approximately 50 CFU S. aureus.
For the 24 hr post-challenge period milk samples were collected during the morning milking, and milk/udder evaluations made during the morning and afternoon milking.
Treatment was started at 36 hours post-challenge. Milk samples were collected for culture and SCC 24 hours post-challenge, prior to the morning milking, and the treatment period started following the afternoon milking.
Eight halves (4 goats) each were treated for 2 consecutive milkings 12 hours apart, following milking. Each designated compound was formulated in peanut oil with […] of compound per 5 g of formulation to give approximately 25 mg/5 mL dose.
Following treatment, the goats were milked and observed for 15 days. Milk samples were collected on Days +4 to +6, +8, +11, +13, and +15 to determine if the infection had cleared.
Establishment of mastitis was determined by bacterial culturing, severity of udder scoring, somatic cell count results, and body temperature.
On Days +2 to +6, milk samples were collected for a calorimetric assay to determine whether the antibiotic was still present in the milk.

Mastitis in Cows = test: Efficacy in mastitis in lactating cows; type: in vivo; settings: three trials, 450 mmoles/quarter/dose for two doses
Procedure: Compound 1 was administered to lactating cows in three trials using methods analogous to those used in the goat model described in Example 13. A total of 43 quarters were treated with Compound 1, and 36 quarters were treated with cephapirin (Cefa-Lak). Both compounds were administered at 450 mmoles/quarter/dose for two doses. Compound 1 effectively treated 27 out of 43 quarters for an overall cure rate of 63%, whereas cephapirin effectively treated 18 out of 36 quarters for an overall cure rate of only 50%.

Question: Which “MIC vs. S.aureus ATCC 29213” value (S.aureus ATCC 29213) does the source give for `Cc1nnc(SCC2=C(C(=O)O)N3C(=O)[C@@H](NC(=O)Cc4c(F)c(F)c(F)c(F)c4F)[C@H]3SC2)s1` [Compound 6] here?
Answer: 0.125

Question: And the “MIC vs. S.aureus 174 C” value (S.aureus 174 C)?
Answer: 0.125

Question: And the “MIC vs. S.aureus 10092” value [1]?
Answer: 0.125

Question: And the “MIC vs. S.aureus F1C” value (S.aureus F1C)?
Answer: 0.25

Question: And the “MIC vs. Streptococcus uberis 150 L” value [2]?
Answer: 0.0625

Question: What about the “MIC vs. Streptococcus uberis 166 L” value [3] of the same compound?
Answer: 0.0156

Question: What about the “MIC vs. Streptococcus agalactiae” value (Streptococcus agalactiae) of the same compound?
Answer: 0.0625

Question: What about the “MIC vs. Strepcococcus dysgalactiae” value [4] of the same compound?
Answer: 0.0312

Question: What about the “% Bacteriologic Cures” value [5] of the same compound?
Answer: 60%

Question: With `Cc1nnc(SCC2=C(C(=O)O)N3C(=O)[C@@H](NC(=O)COc4ccc(OC(F)(F)F)cc4)[C@H]3SC2)s1` [Compound 7] as the compound, how does the “MIC vs. S.aureus ATCC 29213” value (S.aureus ATCC 29213) read?
Answer: 0.312

Question: What about the “MIC vs. S.aureus 174 C” value (S.aureus 174 C) of the same compound?
Answer: 0.312

Question: What about the “MIC vs. S.aureus 10092” value [1] of the same compound?
Answer: 0.312

Question: What about the “MIC vs. S.aureus F1C” value (S.aureus F1C) of the same compound?
Answer: 0.0625

Question: And the “MIC vs. Streptococcus uberis 150 L” value [2]?
Answer: 0.0156

Question: And the “MIC vs. Streptococcus uberis 166 L” value [3]?
Answer: 0.0078

Question: What about the “MIC vs. Streptococcus agalactiae” value (Streptococcus agalactiae) of the same compound?
Answer: 0.0312

Question: And the “MIC vs. Strepcococcus dysgalactiae” value [4]?
Answer: ≤ 0.0078

Question: And the “% Bacteriologic Cures” value [5]?
Answer: 100%

Question: `Cc1nnc(SCC2=C(C(=O)O)N3C(=O)[C@@H](NC(=O)COc4ccc(F)cc4)[C@H]3SC2)s1` [Compound 8] was tested. Which “MIC vs. S.aureus ATCC 29213” value (S.aureus ATCC 29213) did it give?
Answer: 0.312

Question: What about the “MIC vs. S.aureus 174 C” value (S.aureus 174 C) of the same compound?
Answer: 0.0312

Question: What about the “MIC vs. S.aureus 10092” value [1] of the same compound?
Answer: 0.0312

Question: What about the “MIC vs. S.aureus F1C” value (S.aureus F1C) of the same compound?
Answer: 0.0312

Question: And the “MIC vs. Streptococcus uberis 150 L” value [2]?
Answer: 0.0312

Question: What about the “MIC vs. Streptococcus uberis 166 L” value [3] of the same compound?
Answer: 0.0312

Question: What about the “MIC vs. Streptococcus agalactiae” value (Streptococcus agalactiae) of the same compound?
Answer: 0.0312

Question: What about the “MIC vs. Strepcococcus dysgalactiae” value [4] of the same compound?
Answer: 0.0312

Question: What about the “% Bacteriologic Cures” value [5] of the same compound?
Answer: 100%

Question: With `Cc1nnc(SCC2=C(C(=O)O)N3C(=O)[C@@H](NC(=O)COc4c(F)cc(F)cc4F)[C@H]3SC2)s1` [Compound 9] as the compound, how does the “MIC vs. S.aureus ATCC 29213” value (S.aureus ATCC 29213) read?
Answer: 0.125

Question: And the “MIC vs. S.aureus 174 C” value (S.aureus 174 C)?
Answer: 0.0625

Question: What about the “MIC vs. S.aureus 10092” value [1] of the same compound?
Answer: 0.125

Question: What about the “MIC vs. S.aureus F1C” value (S.aureus F1C) of the same compound?
Answer: 0.125

Question: What about the “MIC vs. Streptococcus uberis 150 L” value [2] of the same compound?
Answer: 0.0625

Question: What about the “MIC vs. Streptococcus uberis 166 L” value [3] of the same compound?
Answer: 0.0625

Question: And the “MIC vs. Streptococcus agalactiae” value (Streptococcus agalactiae)?
Answer: 0.0312

Question: And the “MIC vs. Strepcococcus dysgalactiae” value [4]?
Answer: 0.125

Question: What about the “% Bacteriologic Cures” value [5] of the same compound?
Answer: 83%

Question: `Cc1nnc(SCC2=C(C(=O)O)N3C(=O)[C@@H](NC(=O)COc4cc(F)cc(F)c4)[C@H]3SC2)s1` [Compound 10] was tested. Which “MIC vs. S.aureus ATCC 29213” value (S.aureus ATCC 29213) did it give?
Answer: 0.0312

Question: What about the “MIC vs. S.aureus 174 C” value (S.aureus 174 C) of the same compound?
Answer: 0.0312

Question: And the “MIC vs. S.aureus 10092” value [1]?
Answer: 0.0312

Question: And the “MIC vs. S.aureus F1C” value (S.aureus F1C)?
Answer: 0.0312

Question: And the “MIC vs. Streptococcus uberis 150 L” value [2]?
Answer: 0.0312

Question: And the “MIC vs. Streptococcus uberis 166 L” value [3]?
Answer: 0.0156

Question: What about the “MIC vs. Streptococcus agalactiae” value (Streptococcus agalactiae) of the same compound?
Answer: 0.0156

Question: And the “MIC vs. Strepcococcus dysgalactiae” value [4]?
Answer: 0.0312

Question: What about the “% Bacteriologic Cures” value [5] of the same compound?
Answer: 33%

Question: Which results are given for `CC(=O)OCC1=C(C(=O)O)N2C(=O)[C@@H](NC(=O)CSc3ccncc3)[C@H]2SC1` [cephapirin, reference compound]?
Answer: overall cure rate (Mastitis in Cows): 50%; quarters effectively treated (Mastitis in Cows): 18 out of 36
